Measured values reported in patent publication US7893078B2 (priority 2001, dated 2011).
Values joined by “and” are separate entries in the source; they are usually repeats but may differ in a detail not shown here. Equal entries are not always repeated. “Also recorded” adds a separate entry of the source.

What was measured:
[1] = system: normal epidermis and hair follicles; assay: Normal skin exposed to the same schedule and doses of cyclopamine cream; histology, immunohistochemistry and follow-up
Source text: (§1) The base cream used is made predominantly of heavy paraffin oil (10% w/w), vaseline (10% w/w), stearyl alcohol (8% w/w), polyoxysteareth-40 (3% w/w) and water (68% w/w), but another suitably formulated base cream is also possible. […] Night-time applications, avoided in this schedule because of possible loss of cream from the patient skin to linens during sleep, can be performed by suitable dermal patches.

melanocytic nevi = assay: Cyclopamine cream on mole / melanocytic nevi; assay type: in vivo, human
Source text: (§2) Trichoepithelioma is another tumor associated with genetic changes that cause increased hedgehog-smoothened signalling (Vorechovsky L. et al. (1997) Cancer Res. 57:4677-4681; Nilsson M. et al. (2000) Proc. Natl. Acad. Sci. USA 97:3438-3443).

trichoepithelioma = conditions: human, in vivo
Source text: as §2

[2] = system: basal cell carcinoma (BCC); conditions: human, in vivo
Protocol: as §1
Every third hour, about 20 μl cream was applied directly onto the lower half and the upper half was left untreated.
The tumor was then followed up without treatment for a study of the possible late effects. […] For example expression of the cell adhesion molecule CD44 is known to increase upon differentiation of the epidermal basal cells to the upper spinous layer cells (Kooy A J et al (1999) Human Pathology 30:1328-1335).

CC1=C2C[C@H]3[C@@H](CC=C4C[C@@H](O)CC[C@@]43C)[C@@H]2CC[C@]12O[C@@H]1C[C@H](C)CN[C@H]1[C@H]2C [Cyclopamine]
Appearance of former skin sites of cyclopamine application at long-term follow-up ([1]; followed up more than 31 months): healthy-looking normal skin and hair
Adverse effect on tissues and putative stem cells (histology, cytokeratin 15 and 19, Ber-Ep4) ([1]; normal skin exposed to same schedule and doses as the BCCs): no adverse effect
Effect on melanocytic nevi (melanocytic nevi; 18 mM cyclopamine cream, another volunteer, data not shown): rapid depigmentation and disappearance
Size and pigmentation of mole near treated tumor (melanocytic nevi; cyclopamine by diffusion from adjacent application area, 24th hour): decreased size and pigmentation
Clinical regression of trichoepithelioma (trichoepithelioma): rapid regression
% of Cells Labelled with Ber-Ep4 [2]: 0 ± 0%
% of Cells showing ≦ 2 Morphological Signs of Apoptosis on H & E Stained Tissue Sections [2]: 20 ± 8% and 18 ± 11%
CD44 labelling of residual tumor cells (differentiation marker) [2]: markedly increased, strong labelling of essentially all residual tumor cells
Clinical regression of BCC [2]: rapid clinical regressions; also recorded: rapid regression; also recorded: largely regressed
Ki-67 antigen expression (proliferation marker) [2]: no longer expressed
Labelling of residual BCC cells with Ulex Europaeus lectin type 1 (differentiation marker) [2]: heterogenous labelling
